These results are taken from patent US20230256011A1, “Chlorite In the Treatment of Acute Respiratory Distress Syndrome” (The Regents of the University of California, priority 2020, published 2023).

Where “and” joins values, the source holds several entries; their conditions need not be identical. Identical values can stand only once.

In experiment [1] the test system is blood derived macrophages (CD16 on CD14 cells). The settings on record: +30 µM, +100 µM, +300 µM, three days, 5 donors, FIG. 2. How it is done:
Cells were then processed for flow cytometry (5 separate donors) and CD14 cell co-expression of CD16 (macrophage activation marker) was scored.
Percentage of control median CD16 was calculated for all 5 donors +/- SD.

The subject of experiment [2] is Blood derived macrophages from ALS patients. Conditions: 300uM overnight, two ALS patients, FIG. 3. The source says: The maj or focus was on regulation of inflammation as compared to normal macrophage functional genes. […] Note that by “housekeeping genes” is meant B2M, HPRT1, RPL13A, GAPDH, and ACTB.
Experiment [3] deals with ALS blood monocytes. Conditions: 3 days. How it is done: Culture supernatants are harvested and osteopontin levels (OPN) are determined by ELISA.
Repeated with 3 normal and 5 ALS donors.

Another experiment concerns Normal blood macrophages. The settings on record: 150uM, three days, three donors.
The subject of experiment [4] is ALS blood monocytes. The settings on record: 300uM, 3 days, FIG. 4.
Experimental: Culture supernatants were harvested and cytokine levels were determined by ELISA. […] Referring to the Y-axis, percentage of reduction is the level of factor in treated as compared to untreated macrophages. N is 8-18 in several experiments.

For the substance “sodium chlorite [sodium chlorite formulation]”, the “CD16 expression on CD14+ (monocyte lineage) cells” value in experiment [1] is recorded as “dose dependent down regulation of CD16”. In experiment [2], the CCL16 gene expression result is recorded as “clear down regulation”, the CCR2 gene expression entry is listed as “clear down regulation”, the CXCL9 gene expression result is listed as “clear down regulation” and the CXCL10 gene expression entry is “clear down regulation”. In experiment [2], the “IL-18 gene expression (inflammasome activation)” value was “clear down regulation” and the TLR4 gene expression result was “clear down regulation”. In addition, the “production of OPN from ALS patient macrophages (ELISA)” value in the experiment with ALS blood monocytes [3] (150uM, FIG. 6 panel A) is given as “inhibit production of OPN”. The “SPP1 (osteopontin) gene expression” value in the experiment with ALS blood monocytes [3] (dose response, FIG. 6 panel B) was “inhibits SPP1 (osteopontin) gene expression in a dose-dependent manner”. Further, in the experiment with Normal blood macrophages, the “CCR3 gene down regulated” value is 3 X, the “CXCL9 gene down regulated” value stood at 14 X and the SERPINB2 gene upregulated stood at 4 X. Besides, the “production of secreted inflammatory factors (IL-1Ra, CD163, CD14, OPN)” value in the experiment with ALS blood monocytes [4] is “inhibits production”. Besides, in the experiment with COVID19 blood monocytes, the “Chlorite % Reduction of factor in vitro, MIG” value is 88% and 70%; the “Chlorite % reduction of factor in vitro, IP10” value is 95% and 80%; the “down regulation of HGF” value was “greater than 50%”; the “down regulation of IL1Ra” value is on record as “greater than 50%”. In the experiment on COVID19 blood monocytes, the “down regulation of IP10 (CXCL10)” value is recorded as “greater than 50%”, the “down regulation of MIG (CXCL9)” value is given as “greater than 50%”, the “down regulation of OPN” value is “greater than 50%” and the “down regulation of sCD163 (CD163)” value is “greater than 50%”. Besides, in the experiment on COVID19 blood monocytes, the “production of COVID-19 patient macrophage produced disease factors (IL-1Ra, IP-10, HGF, MIG, sCD163, OPN) as compared to controls” value was “downregulated production”.
